Experimental data reported in ChEMBL document CHEMBL4190372, “Discovery of a Novel Oral Glucocorticoid Receptor Modulator (AZD9567) with Improved Side Effect Profile” (J Med Chem, 2018).

Key:
[1] = Clearance in Beagle dog at 0.5 mg/kg, po; format: ADME, organism-based, Canis lupus familiaris; conditions: in vivo
[2] = target: Estrogen receptor beta (Homo sapiens, UniProt Q92731); experiment: Binding affinity to human ERbeta expressed in Sf9 cells by fluoligand binding-based fluorescence polarization method
[3] = Ratio of drug level in rat blood to plasma; format: ADME, cell-free; conditions: blood and plasma
[4] = target: T1, Glucocorticoid receptor (Homo sapiens) (UniProt P04150)
T1 sequence (whole entry): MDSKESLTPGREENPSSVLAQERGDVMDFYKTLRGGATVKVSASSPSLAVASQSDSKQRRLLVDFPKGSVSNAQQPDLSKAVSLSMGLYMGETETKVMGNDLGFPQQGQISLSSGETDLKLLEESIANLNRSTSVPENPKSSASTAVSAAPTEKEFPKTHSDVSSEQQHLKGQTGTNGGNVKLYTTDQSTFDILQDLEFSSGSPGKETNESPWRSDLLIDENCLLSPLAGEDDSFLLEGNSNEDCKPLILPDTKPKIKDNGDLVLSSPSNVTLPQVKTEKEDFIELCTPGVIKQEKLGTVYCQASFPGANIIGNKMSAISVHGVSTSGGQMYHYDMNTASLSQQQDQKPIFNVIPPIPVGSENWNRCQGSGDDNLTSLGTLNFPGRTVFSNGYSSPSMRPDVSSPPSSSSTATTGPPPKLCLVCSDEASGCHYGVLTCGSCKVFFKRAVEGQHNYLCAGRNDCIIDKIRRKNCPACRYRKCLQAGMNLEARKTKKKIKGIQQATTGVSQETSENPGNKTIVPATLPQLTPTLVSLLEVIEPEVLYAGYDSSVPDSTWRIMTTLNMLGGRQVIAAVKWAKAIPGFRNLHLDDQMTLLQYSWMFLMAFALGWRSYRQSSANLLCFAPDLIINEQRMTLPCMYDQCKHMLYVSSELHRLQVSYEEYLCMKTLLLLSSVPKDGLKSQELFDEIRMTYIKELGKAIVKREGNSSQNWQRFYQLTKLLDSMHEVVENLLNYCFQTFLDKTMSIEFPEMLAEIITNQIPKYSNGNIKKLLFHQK
Description: Transrepression of GR in human whole blood assessed as inhibition of LPS-induced TNF-alpha release preincubated for 45 mins followed by LPS addition after 18 hrs by AlphaLISA method

[5] = target: T2, Glucocorticoid receptor (Homo sapiens, UniProt P04150)
T2 sequence (P04150 whole entry): T1 sequence (whole entry)
Description: Transactivation activity at glucocorticoid receptor (unknown origin) expressed in human ChaGoK1 cells incubated for 24 hrs by beta-galactosidase reporter gene assay

[6] = target: T3, Glucocorticoid receptor (Rattus norvegicus, UniProt P06536); experiment: Modulation of glucocorticoid receptor in rat plasma
T3 sequence (P06536 whole entry): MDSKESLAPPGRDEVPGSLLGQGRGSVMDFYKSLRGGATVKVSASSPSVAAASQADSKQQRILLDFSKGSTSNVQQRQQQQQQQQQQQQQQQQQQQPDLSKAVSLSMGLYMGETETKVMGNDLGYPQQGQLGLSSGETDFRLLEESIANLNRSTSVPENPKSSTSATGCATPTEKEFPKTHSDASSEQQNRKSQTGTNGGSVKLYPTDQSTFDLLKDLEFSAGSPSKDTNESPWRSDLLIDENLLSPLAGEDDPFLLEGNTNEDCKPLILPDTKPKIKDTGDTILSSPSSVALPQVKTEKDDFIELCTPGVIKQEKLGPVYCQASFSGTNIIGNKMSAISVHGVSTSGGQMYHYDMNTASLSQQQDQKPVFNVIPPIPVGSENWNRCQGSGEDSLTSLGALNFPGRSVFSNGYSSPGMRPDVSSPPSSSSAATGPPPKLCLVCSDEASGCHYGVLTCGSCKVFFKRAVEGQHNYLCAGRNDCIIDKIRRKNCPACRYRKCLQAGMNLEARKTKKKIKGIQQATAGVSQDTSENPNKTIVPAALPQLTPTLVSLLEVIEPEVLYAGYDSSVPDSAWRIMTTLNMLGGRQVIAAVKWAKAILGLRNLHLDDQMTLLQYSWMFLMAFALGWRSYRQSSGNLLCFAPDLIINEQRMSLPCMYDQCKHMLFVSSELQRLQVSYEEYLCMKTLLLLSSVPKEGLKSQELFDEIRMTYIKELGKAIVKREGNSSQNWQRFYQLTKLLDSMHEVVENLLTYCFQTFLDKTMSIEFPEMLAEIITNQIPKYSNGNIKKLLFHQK

[7] = test system: Rattus norvegicus; experiment: Antiinflammatory activity in streptococcal cell wall reactivation Lewis rat model assessed as reduction of joint swelling at 0.1 mg/kg administered once daily for 8 days by oral gavage starting 1 day prior to streptococcal cell wall challenge measured during 6 days post challenge relative to control; format: functional; set-up: scale not given: the % may be the effect or the level left
[8] = Oral bioavailability in Han-Wistar rat at […]; format: ADME, organism-based; conditions: in vivo
[9] = target: T2, Glucocorticoid receptor; experiment: Transactivation of GR in cryopreserved human primary hepatocytes assessed as upregulation of TAT mRNA expression level up to 1 uM after 18 hrs by RT-qPCR analysis
[10] = test system: Rattus norvegicus; experiment: Dose normalized Cmax in Han-Wistar rat at 2.1 mg/kg, po; format: ADME, organism-based; conditions: in vivo
[11] = target: T4, Androgen receptor (Homo sapiens, UniProt P10275); experiment: biochemical
T4 sequence (P10275 whole entry): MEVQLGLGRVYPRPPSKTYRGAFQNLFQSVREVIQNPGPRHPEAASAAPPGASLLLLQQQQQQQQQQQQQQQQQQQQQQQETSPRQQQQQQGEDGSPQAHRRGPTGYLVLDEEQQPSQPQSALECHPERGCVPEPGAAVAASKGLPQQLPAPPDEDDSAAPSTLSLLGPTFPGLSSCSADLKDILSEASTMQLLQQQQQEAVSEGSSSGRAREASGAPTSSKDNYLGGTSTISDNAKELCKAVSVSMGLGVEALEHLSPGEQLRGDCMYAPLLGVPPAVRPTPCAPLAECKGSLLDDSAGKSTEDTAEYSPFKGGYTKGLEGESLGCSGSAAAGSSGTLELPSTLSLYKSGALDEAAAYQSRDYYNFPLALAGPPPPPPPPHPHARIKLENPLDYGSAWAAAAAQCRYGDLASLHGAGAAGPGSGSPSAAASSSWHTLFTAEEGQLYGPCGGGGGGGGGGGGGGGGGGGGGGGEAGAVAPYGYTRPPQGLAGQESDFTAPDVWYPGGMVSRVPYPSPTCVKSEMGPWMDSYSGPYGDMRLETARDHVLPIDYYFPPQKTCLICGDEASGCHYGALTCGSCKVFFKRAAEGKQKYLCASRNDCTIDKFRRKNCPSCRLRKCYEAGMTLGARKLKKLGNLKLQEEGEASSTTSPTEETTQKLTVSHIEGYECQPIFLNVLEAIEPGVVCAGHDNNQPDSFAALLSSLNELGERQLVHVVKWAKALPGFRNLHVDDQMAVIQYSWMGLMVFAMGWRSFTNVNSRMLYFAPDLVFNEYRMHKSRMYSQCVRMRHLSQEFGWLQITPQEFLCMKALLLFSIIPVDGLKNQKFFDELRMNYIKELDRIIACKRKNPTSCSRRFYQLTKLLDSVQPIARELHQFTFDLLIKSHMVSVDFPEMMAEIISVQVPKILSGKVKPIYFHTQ
Description: Displacement of [3H]methyltrienolone from androgen receptor in human LNCaP cells after 1440 mins by scintillation counting method

[12] = Volume of distribution at steady state in Han-Wistar rat at 0.8 mg/kg, iv; format: ADME, organism-based; conditions: in vivo, read-out: Vdss
[13] = target: T2, Glucocorticoid receptor; remark: listed apart in the source
Description: Transrepression activity at glucocorticoid receptor (unknown origin) expressed in human ChaGoK1 cells assessed as inhibition of PMA-stimulated gene expression incubated for 24 hrs by beta-galactosidase reporter gene assay

Chain of Estrogen receptor beta (Q92731 whole entry): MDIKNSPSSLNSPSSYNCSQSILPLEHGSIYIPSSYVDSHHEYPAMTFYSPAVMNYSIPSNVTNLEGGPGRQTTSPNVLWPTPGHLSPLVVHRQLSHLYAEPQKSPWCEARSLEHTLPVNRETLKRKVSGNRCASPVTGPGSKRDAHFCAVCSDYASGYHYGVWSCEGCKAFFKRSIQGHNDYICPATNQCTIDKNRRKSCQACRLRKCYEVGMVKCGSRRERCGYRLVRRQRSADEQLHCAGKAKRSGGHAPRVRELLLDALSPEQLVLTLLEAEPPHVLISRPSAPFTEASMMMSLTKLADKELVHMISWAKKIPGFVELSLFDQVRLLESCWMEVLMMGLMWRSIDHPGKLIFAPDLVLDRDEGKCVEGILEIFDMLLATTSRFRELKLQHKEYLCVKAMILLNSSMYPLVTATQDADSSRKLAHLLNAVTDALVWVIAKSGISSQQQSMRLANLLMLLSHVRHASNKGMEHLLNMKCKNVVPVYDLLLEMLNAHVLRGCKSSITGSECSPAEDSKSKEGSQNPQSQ

CL/F [1]: 3.2 mL/min/kg | IC50 [2]: > 100000 nM | blood plasma ratio [3]: 0.64 | fIC30 [4]: 1.4 nM | EC50 [5]: 11 nM | IC50 [6]: 30 nM | bioavailability [8]: 52% | Activity [9]: Not Active | Cmax/dose [10]: 950 nM | IC50 [11]: > 100000 nM | Vd [12]: 0.66 L/kg | IC50 [13]: 7 nM
Structure (SMILES): CC(C)[C@H](NC(=O)C(C)(F)F)[C@H](Oc1ccc2c(cnn2-c2ccc(=O)n(C)c2)c1)c1ccccc1 [MIZACORAT]
Activity [7]: 42%
